# Legend:
# [1] = test system: full panel of 59 cancer cells; assay: NCI one-dose screen (SRB), full panel; format: cell-based, human; conditions: mean over full panel of 59 cell lines, 10 µM single dose; for inhibition at 10 µM: Homo sapiens, read-out: MGI% (mean growth inhibition percentage)
# Description: The growth percentage (G%) and cell viability of the herein target compounds 6a–l, 7a,b, and 9a–c have been screened towards a full panel of 59 cancer cells at NCI’s Developmental Therapeutics Program (NCI-DTP, MD, USA)[21]. The submitted analogues were initially examined for preliminary in vitro anticancer activity using sulforhodamine B (SRB) assay at 10 µM as a single dose to evaluate cell growth and viability according to the procedure of Drug Evaluation Branch[22]^,[23].
# Different types of tumours – colon, NSCLC, leukaemia, CNS, renal, breast, ovarian, melanoma, and prostate cancers – were investigated as a full panel of 59 cell lines, and the attained results are cited in Figures S1–S17 (see Supplementary Material) where the value recorded is the growth relative to that of both the negative control and zero-time number of cells in which both growth inhibition (GI%; 0–100%) and lethality (L%; 0–100%) percentages can be identified. The growth inhibition means percentages (MGI%) for the examined target analogues towards the different treated 59 cancer cells were presented in Figure 2.
# The designed analogues were submitted to NCI-Chemotherapeutic Agents Repository (MD, USA) for screening on a panel of 59 cancer cell lines. All compounds were initially examined at 10 µM concentration (Single-Dose Screen), and then the most efficient analogue 6i was screened further at 0.01–100 µM (Five-Dose Screen). The screening procedures were performed according to NCI-Drug Evaluation Branch protocol using SRB protein assay, as described previously[21]^,[66]. The experimental procedures were detailed in the Supporting Information.
# [2] = test system: HSF (Normal human skin fibroblast) cells; assay: MTT cytotoxicity assay; format: cell-based; conditions: HSF normal fibroblasts, 48 h, mean ± SD from triplicates
# Description: The results hinted that 6i elicited stronger cytotoxicity and higher selectivity for cancer than normal cells.
# (§1) The MTT assay was carried out according to the procedure cited earlier. Briefly, in a 96-well plate, either cancer or normal cells were seeded (10^6 cells/cm^2; 100 µL/well) and incubated for 12 h at 37 °C and CO2 (5%), then serial dilutions of compound 6i were added and incubated for 48 h using DMSO control (0.5% V/V). MTT (3-(4,5-dimethylthiazoyl)-2,5-diphenyl-tetrazolium bromide; Cat. No. M-5655) 5 mg/mL was then added. After 4 h incubation, the formed MTT formazan crystals were solubilised by 10% Triton X-100 plus 0.1 N HCl in anhydrous isopropanol. The absorbance was read using a Bioline plate reader at λ570–630 nm[25–29]. The selectivity of 6i towards HSF cells was also determined as follows[30]^,[31]: SI=IC50HSF cells/IC50of cancer cells
# [3] = test system: PC-3 (Prostate cancer); assay: MTT cytotoxicity assay; format: cell-based, human; conditions: Homo sapiens; PC-3; MTT, 48 h; mean ± SD from triplicates
# Description: as §1
# [4] = test system: MCF-7 (Breast cancer); assay: MTT cytotoxicity assay; format: cell-based, human; conditions: Homo sapiens, MCF7; MCF-7; MTT, 48 h; mean ± SD from triplicates
# Description: as §1
# [5] = test system: OVCAR-3 (Ovarian Cancer); assay: MTT cytotoxicity assay; format: cell-based, human; conditions: Homo sapiens, OVCAR-3, 48 h, OVCAR-3; MTT, 48 h; mean ± SD from triplicates
# Description: as §1
structure (smiles),measurement,setting,value
CCOC(=O)CC[C@H](NC(=O)c1ccc(NC(=O)CSC2=NC(C)=C(C(=O)OCC)[C@@H](c3ccc(Br)cc3)N2)cc1)C(=O)OCC [Compound 9c],inhibition at 10 µM,[1],36.9%
CCOC(=O)CC[C@H](NC(=O)c1ccc(NC(=O)Cn2cnc3c(c(SC)nn3-c3ccc(Br)cc3)c2=O)cc1)C(=O)OCC [Compound 6k],MGI% (mean growth inhibition percentage),[1],failed to demonstrate MGI%
CCOC(=O)CC[C@H](NC(=O)c1ccc(NC(=O)CSC2=NC(C)=C(C(=O)OCC)[C@@H](c3ccc(Cl)cc3)N2)cc1)C(=O)OCC [Compound 9b],inhibition at 10 µM,[1],33.9%
"CN(Cc1cnc2nc(N)nc(N)c2n1)c1ccc(C(=O)N[C@@H](CCC(=O)O)C(=O)O)cc1 [MTX, methotrexate, reference compound]",IC50,[2],13.7 ± 0.69 µM
same,IC50,[3],2.72 ± 0.14 µM
same,IC50,[4],0.58 ± 0.03 µM
same,IC50,[5],6.31 ± 0.32 µM

# Reference: article PMC10120551, “Novel Glu-based pyrazolo[3,4-d]pyrimidine analogues: design, synthesis and biological evaluation as DHFR and TS dual inhibitors” (Journal of Enzyme Inhibition and Medicinal Chemistry, 2023)
